Experimental data taken from patent US11667602B2, “Compounds and their use” (AstraZeneca AB, priority 2020, dated 2023).

Tests used:
[1] = Human Plasma Protein Binding (Test B); assay type: in vitro ADME; conditions: fraction unbound (fu)
Procedure, shortened: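 Values given as % free (fu) in human plasma, using the method of Wernevik et al. (2020). For compounds tested more than once, the arithmetic mean is given.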

human RXFP1 [2] = biological target: T1, human RXFP1 (Homo sapiens, UniProt Q9HBX9); assay: Human RXFP1 cGMP Production Assay (Test G); assay type: cell-based; parameters: expressed in transfected cells; conditions: HEK293s cells stably transfected with human RXFP1; Green GENIe cGMP biosensor, area under curve 0 to 90 min
T1 sequence (Q9HBX9 1-757): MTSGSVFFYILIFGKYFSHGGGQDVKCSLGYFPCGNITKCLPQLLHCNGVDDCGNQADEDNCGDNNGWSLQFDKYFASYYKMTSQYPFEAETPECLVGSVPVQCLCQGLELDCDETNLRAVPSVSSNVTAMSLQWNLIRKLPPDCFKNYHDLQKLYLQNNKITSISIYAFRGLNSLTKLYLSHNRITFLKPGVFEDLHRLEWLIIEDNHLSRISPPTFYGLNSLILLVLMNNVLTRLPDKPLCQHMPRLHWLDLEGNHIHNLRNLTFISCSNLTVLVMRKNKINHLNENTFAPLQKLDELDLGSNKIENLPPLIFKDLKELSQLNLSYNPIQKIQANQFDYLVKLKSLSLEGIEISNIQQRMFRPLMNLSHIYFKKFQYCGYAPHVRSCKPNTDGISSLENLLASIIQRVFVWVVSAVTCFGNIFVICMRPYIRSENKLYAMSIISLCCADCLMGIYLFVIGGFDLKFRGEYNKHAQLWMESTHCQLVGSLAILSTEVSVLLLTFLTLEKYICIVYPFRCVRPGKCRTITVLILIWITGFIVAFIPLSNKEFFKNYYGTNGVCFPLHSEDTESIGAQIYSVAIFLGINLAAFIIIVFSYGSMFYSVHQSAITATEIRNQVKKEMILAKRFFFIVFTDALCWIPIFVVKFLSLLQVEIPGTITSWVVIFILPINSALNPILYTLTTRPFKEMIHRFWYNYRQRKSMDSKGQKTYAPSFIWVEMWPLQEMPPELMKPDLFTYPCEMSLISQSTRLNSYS
Excerpt: Human RXFP1 cGMP Production Assay (Test G)
To profile compounds for RXFP1 agonist activity with respect to cGMP production, the Green GENIe cGMP Assay (Montana Molecular; catalogue number D800G) was employed. The assay is based on an nmNeonGreen fusion protein fluorescent biosensor delivered to mammalian cells in a BacMam vector. Fluorescence is reduced when cGMP is bound to the biosensor.
(§1) Cells: HEK293s cells stably transfected with human RXFP1 in pIRESneo3 was employed.
Day 1 • 1. Cells were splitted one day ahead of transduction and seeded to 63 000 cells/cm2 in DMEM medium with 10% FBS without antibiotics in a tissue culture flask.
Day 2 • 2. […] A viral transduction mastermix was prepared by mixing reagents in the following proportions for a single well: • 6 μL GENIe BacMAM vector • 0.2 μL 500 mM sodium butyrate • 13.8 μL DMEM medium with 10% FBS • 20 μL total volume • 5. Cells and transduction mastermix were mixed in proportions 30 μL cells and 20 μL mastermix for a single well. • 6. […] Plate was incubated in the dark at 37° C., 5% CO2 for 24 h.
Day 3 • 8. Medium was removed from plates using a Bluewasher (BluCatBio). • 9. 20 μL assay buffer was added with a Multidrop Combi (ThermoFisher). • 10. Plate was incubated in the dark at room temperature for 30 min prior to assaying. • 11. Plates were assayed using a FLIPR Tetra (Molecular Devices): 10 μL compound diluted with assay buffer was added to each well by the FLIPR Tetra and measuring green fluorescence over time for up to 3 h.
Data was processed using Screener software (Genedata A G). After subtraction of background fluorescence (before addition of compounds), area under curve values from 0 to 90 min after compound addition was used for calculation of responses.

human RXFP1 [3] = biological target: T1, human RXFP1; assay: Human RXFP1 Phospho-ERK Assay (Test H); assay type: cell-based; parameters: expressed in transfected cells; conditions: HEK293s cells stably transfected with human RXFP1; phospho-ERK (Thr202/Tyr204) HTRF, 5 min stimulation; read-out: Test H phospo-ERK assay EC50
Excerpt: as §1

human RXFP1 [4] = biological target: T1, human RXFP1; assay: RXFP1 Hu cAMP (Test A); assay type: cell-based; parameters: expressed in transfected cells; host or cells: Jump-In T-REx CHO-K1 cells (ThermoFisher), induced with 10 ng/ml doxycycline for 24 h; conditions: RXFP1 Hu cAMP; for EC50: read-out: Test A EC50
Procedure, shortened: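 Cells: CHO-K1 stably carrying human RXFP1, expressed after 24 h 10 ng/ml doxycycline; 0.5 mM IBMX final, HTRF detection after 2 h at room temperature.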

Test B Human Plasma Protein Binding (% free) [1] | EC50 (human RXFP1 [2]) | EC50 (human RXFP1 [3]) | Test A Sinf (human RXFP1 [4]) | EC50 (human RXFP1 [4]) | SMILES
0.060 % free | 300 nM | 81 nM | 98% | 140 nM | COc1cc(F)c(-c2ccc(C(=O)O)cc2)cc1C(=O)N[C@H]1[C@@H](C(=O)Nc2cccc(S(=O)(=O)C(F)(F)F)c2)[C@@H]2C=C[C@H]1C2 (single isomer, unassigned) [Example 552]
1 % free | 9.3 nM | 1.2 nM | 108% | < 2 nM | COc1cc(F)c(O[C@H]2CC[C@@](C)(C(=O)O)CC2)cc1C(=O)N[C@@H]1[C@H]2CC[C@H](C2)[C@@H]1C(=O)Nc1cccc(S(=O)(=O)C(F)(F)F)c1 [Example 208, (1S,4s)-4-(2-Fluoro-4-methoxy-5-(((1S,2R,3S,4R)-3-((3-((trifluoromethyl)sulfonyl)phenyl)carbamoyl)bicyclo[2.2.1]heptan-2-yl)carbamoyl)phenoxy)-1-methylcyclohexane-1-carboxylic acid]
<0.23 % free | 3.7 nM | 0.36 nM | 114% | 0.41 nM | COc1cc(F)c(O[C@H]2CC[C@@](C)(C(=O)O)CC2)cc1C(=O)N[C@@H]1[C@H]2CC[C@H](C2)[C@@H]1C(=O)Nc1ccc(F)c(S(F)(F)(F)(F)F)c1 [Example 353]
0.38 % free | 19 nM |  | 109% | 5.3 nM | COc1cc(F)c(O[C@H]2CC[C@@H](C(=O)O)CC2)cc1C(=O)N[C@@H]1[C@H]2CC[C@H](C2)[C@@H]1C(=O)Nc1ccc(F)c(S(F)(F)(F)(F)F)c1 [Example 433]
